The results in this text go back to article PMC8213057, “Targeting ALK2: An Open Science Approach to Developing Therapeutics for the Treatment of Diffuse Intrinsic Pontine Glioma” (Journal of Medicinal Chemistry, 2020).

One test has as its target T1, MAPKAPK5/PRAK (Homo sapiens, UniProt Q8IW41).
T1 sequence (Q8IW41 1-473): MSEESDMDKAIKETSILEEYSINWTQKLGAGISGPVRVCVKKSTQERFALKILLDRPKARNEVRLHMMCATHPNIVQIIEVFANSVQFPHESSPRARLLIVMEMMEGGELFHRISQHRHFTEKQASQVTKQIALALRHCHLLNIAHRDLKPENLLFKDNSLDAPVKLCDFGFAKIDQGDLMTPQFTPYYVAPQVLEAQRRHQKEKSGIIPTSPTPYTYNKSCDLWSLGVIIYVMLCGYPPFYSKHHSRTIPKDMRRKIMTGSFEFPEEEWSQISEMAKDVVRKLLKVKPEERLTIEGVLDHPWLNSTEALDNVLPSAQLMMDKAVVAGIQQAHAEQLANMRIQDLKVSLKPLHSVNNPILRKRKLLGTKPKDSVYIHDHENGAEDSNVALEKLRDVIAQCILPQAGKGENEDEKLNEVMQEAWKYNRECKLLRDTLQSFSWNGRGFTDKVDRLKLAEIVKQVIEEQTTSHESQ
In words: biochemical. The settings on record: read-out: % enzyme activity, 1 μM; Run 1, Run 2.

Another test concerns the target EGFR (Homo sapiens, UniProt P00533). The test is described as follows: biochemical. The conditions noted are these: read-out: % enzyme activity, 1 μM; Run 1, Run 2.
The target in another test is T2, TEC (Homo sapiens, UniProt P42680).
T2 sequence (P42680 1-631): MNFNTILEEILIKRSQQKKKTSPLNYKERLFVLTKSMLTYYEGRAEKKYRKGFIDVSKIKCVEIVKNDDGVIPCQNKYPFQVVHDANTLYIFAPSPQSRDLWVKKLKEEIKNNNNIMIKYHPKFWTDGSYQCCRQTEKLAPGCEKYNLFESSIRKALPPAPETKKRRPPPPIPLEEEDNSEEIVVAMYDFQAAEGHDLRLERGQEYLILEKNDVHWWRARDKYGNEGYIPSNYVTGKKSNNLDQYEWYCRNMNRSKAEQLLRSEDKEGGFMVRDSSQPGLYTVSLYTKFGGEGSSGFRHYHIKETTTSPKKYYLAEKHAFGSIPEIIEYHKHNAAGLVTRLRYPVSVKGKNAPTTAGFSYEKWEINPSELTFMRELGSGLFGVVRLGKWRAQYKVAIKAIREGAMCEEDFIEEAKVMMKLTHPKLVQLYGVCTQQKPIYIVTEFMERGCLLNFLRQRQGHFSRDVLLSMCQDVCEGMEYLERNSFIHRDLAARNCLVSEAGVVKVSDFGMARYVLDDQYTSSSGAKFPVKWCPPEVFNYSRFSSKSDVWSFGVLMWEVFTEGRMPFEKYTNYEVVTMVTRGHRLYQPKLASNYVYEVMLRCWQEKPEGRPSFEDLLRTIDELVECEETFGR
The conditions noted are these: 1 μM; Run 1, Run 2.

The next test deals with T3, PKCmu/PRKD1 (Homo sapiens, UniProt Q15139).
T3 sequence (Q15139 1-912): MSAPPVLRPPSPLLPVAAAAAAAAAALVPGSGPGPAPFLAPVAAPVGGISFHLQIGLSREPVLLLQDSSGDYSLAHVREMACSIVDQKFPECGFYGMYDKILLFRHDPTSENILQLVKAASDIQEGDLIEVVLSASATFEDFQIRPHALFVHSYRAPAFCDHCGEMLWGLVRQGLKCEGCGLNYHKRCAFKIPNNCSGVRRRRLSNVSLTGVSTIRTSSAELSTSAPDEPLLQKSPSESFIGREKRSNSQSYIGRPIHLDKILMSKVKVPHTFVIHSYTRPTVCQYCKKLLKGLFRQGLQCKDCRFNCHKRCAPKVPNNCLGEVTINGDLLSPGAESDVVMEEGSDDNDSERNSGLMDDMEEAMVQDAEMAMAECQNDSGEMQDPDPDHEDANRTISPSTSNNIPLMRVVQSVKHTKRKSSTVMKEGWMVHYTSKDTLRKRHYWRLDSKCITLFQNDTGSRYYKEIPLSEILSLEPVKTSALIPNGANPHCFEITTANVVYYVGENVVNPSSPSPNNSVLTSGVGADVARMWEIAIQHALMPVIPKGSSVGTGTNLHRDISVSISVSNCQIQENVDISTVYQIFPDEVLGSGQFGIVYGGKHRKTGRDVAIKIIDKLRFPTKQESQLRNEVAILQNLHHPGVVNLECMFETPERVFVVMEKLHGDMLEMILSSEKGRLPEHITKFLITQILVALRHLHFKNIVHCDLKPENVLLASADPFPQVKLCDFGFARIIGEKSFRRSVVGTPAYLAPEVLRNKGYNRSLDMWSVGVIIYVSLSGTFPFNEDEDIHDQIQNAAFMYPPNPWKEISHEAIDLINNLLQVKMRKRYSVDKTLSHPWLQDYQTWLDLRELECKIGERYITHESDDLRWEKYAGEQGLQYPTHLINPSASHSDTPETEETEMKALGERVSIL
The conditions noted are these: 1 μM; Run 1, Run 2.

For another test, the target named is PIM2 (Homo sapiens, UniProt Q9P1W9). The test is described as follows: biochemical. The conditions noted are these: read-out: % enzyme activity, 1 μM; Run 1, Run 2.
Another test concerns the target MSK2/RPS6KA4 (Homo sapiens, UniProt O75676). In words: biochemical. The conditions noted are these: read-out: % enzyme activity, 1 μM; Run 1, Run 2.
The next test deals with WNK3 (Homo sapiens, UniProt Q9BYP7). In words: biochemical. The conditions noted are these: read-out: % enzyme activity, 1 μM; Run 1, Run 2.
The next test concerns the target p70S6Kb/RPS6KB2 (Homo sapiens, UniProt Q9UBS0). The test is described as follows: biochemical. The settings on record: read-out: % enzyme activity, 1 μM; Run 1, Run 2.
In a further test the target is T4, TSSK2 (Homo sapiens, UniProt Q96PF2).
T4 sequence (Q96PF2 1-358): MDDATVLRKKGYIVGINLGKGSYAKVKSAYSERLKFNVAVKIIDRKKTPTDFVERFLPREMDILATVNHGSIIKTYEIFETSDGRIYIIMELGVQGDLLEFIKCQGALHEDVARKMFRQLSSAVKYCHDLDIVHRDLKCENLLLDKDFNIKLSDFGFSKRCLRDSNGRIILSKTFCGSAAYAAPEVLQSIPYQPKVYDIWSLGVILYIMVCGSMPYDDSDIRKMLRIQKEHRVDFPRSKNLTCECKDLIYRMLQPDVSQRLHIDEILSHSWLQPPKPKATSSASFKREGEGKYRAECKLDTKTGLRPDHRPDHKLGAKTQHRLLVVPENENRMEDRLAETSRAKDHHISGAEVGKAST
The test is described as follows: biochemical. The conditions noted are these: read-out: % enzyme activity, 1 μM; Run 1, Run 2.

Several values for one entry are separate records, joined by “and”; a condition that tells them apart may be missing. Equal entries are not always repeated.

EGFR, sequence (P00533 25-1210): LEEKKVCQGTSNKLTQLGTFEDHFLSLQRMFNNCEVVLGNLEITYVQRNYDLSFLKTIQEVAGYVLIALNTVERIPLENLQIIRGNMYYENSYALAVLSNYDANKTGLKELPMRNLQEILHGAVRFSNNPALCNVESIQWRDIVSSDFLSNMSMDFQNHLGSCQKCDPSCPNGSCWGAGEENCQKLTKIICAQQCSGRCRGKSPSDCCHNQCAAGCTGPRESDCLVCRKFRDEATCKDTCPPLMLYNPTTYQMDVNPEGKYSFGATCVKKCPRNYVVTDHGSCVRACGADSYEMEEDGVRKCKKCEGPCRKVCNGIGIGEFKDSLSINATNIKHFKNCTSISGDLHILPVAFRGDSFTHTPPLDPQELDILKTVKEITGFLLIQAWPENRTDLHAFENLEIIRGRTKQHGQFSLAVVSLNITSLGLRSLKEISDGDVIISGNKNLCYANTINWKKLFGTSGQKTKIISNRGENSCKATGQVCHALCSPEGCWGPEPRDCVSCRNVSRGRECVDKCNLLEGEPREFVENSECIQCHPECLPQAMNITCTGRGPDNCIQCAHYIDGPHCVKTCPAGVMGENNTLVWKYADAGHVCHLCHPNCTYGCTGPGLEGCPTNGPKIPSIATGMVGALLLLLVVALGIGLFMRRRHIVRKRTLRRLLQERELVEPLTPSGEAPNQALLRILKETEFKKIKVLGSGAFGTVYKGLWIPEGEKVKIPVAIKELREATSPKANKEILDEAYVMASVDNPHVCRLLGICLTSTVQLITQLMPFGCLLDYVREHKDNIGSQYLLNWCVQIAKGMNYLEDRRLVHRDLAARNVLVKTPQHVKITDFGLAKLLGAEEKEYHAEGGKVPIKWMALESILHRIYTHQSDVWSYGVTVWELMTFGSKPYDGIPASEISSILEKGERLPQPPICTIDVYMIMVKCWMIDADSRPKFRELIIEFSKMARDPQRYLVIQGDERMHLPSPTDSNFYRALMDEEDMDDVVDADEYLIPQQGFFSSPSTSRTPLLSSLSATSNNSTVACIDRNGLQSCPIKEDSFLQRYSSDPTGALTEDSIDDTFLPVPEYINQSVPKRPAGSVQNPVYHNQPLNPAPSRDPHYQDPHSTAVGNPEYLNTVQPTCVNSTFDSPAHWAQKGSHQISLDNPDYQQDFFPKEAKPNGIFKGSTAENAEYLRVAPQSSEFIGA
MSK2/RPS6KA4, sequence (O75676 whole entry): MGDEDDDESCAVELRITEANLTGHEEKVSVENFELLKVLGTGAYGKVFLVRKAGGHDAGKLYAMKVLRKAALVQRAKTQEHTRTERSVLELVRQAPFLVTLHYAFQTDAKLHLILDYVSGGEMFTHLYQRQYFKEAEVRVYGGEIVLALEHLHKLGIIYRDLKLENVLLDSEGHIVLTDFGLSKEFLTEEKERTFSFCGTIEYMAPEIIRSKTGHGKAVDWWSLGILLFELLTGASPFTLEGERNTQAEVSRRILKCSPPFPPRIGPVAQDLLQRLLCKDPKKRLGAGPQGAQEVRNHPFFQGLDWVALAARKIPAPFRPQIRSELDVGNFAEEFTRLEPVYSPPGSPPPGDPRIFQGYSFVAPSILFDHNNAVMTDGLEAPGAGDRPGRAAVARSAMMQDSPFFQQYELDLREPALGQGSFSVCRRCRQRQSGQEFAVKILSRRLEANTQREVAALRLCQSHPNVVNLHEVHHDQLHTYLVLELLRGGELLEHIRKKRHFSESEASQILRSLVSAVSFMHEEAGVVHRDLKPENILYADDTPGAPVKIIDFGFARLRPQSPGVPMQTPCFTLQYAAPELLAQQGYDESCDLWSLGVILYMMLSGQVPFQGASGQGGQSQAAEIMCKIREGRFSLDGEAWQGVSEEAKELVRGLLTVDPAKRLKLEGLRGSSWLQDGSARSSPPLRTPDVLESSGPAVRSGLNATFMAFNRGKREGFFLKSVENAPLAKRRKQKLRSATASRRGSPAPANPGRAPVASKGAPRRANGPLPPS
PIM2, sequence (Q9P1W9 whole entry): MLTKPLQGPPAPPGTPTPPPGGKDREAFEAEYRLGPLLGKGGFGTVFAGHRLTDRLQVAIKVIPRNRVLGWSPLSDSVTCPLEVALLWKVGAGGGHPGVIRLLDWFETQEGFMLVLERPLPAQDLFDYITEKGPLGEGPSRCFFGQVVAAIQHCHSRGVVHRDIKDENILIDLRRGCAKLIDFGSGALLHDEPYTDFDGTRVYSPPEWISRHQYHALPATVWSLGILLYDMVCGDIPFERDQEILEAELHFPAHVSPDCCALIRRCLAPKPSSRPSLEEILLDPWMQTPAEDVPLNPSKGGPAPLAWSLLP
p70S6Kb/RPS6KB2, sequence (Q9UBS0 whole entry): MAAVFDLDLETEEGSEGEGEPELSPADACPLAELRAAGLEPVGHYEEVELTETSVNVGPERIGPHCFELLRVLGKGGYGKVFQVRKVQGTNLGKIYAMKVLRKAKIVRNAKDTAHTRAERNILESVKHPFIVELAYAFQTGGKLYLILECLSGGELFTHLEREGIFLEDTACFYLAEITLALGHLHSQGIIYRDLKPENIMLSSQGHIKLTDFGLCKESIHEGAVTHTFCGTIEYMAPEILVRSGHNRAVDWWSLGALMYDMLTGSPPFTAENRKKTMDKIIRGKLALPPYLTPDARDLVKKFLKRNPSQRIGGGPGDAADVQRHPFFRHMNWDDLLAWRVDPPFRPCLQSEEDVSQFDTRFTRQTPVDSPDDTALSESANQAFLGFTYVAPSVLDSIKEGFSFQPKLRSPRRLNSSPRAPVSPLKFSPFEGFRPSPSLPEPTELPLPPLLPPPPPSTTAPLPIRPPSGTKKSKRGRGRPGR
WNK3, sequence (Q9BYP7 whole entry, species assumed): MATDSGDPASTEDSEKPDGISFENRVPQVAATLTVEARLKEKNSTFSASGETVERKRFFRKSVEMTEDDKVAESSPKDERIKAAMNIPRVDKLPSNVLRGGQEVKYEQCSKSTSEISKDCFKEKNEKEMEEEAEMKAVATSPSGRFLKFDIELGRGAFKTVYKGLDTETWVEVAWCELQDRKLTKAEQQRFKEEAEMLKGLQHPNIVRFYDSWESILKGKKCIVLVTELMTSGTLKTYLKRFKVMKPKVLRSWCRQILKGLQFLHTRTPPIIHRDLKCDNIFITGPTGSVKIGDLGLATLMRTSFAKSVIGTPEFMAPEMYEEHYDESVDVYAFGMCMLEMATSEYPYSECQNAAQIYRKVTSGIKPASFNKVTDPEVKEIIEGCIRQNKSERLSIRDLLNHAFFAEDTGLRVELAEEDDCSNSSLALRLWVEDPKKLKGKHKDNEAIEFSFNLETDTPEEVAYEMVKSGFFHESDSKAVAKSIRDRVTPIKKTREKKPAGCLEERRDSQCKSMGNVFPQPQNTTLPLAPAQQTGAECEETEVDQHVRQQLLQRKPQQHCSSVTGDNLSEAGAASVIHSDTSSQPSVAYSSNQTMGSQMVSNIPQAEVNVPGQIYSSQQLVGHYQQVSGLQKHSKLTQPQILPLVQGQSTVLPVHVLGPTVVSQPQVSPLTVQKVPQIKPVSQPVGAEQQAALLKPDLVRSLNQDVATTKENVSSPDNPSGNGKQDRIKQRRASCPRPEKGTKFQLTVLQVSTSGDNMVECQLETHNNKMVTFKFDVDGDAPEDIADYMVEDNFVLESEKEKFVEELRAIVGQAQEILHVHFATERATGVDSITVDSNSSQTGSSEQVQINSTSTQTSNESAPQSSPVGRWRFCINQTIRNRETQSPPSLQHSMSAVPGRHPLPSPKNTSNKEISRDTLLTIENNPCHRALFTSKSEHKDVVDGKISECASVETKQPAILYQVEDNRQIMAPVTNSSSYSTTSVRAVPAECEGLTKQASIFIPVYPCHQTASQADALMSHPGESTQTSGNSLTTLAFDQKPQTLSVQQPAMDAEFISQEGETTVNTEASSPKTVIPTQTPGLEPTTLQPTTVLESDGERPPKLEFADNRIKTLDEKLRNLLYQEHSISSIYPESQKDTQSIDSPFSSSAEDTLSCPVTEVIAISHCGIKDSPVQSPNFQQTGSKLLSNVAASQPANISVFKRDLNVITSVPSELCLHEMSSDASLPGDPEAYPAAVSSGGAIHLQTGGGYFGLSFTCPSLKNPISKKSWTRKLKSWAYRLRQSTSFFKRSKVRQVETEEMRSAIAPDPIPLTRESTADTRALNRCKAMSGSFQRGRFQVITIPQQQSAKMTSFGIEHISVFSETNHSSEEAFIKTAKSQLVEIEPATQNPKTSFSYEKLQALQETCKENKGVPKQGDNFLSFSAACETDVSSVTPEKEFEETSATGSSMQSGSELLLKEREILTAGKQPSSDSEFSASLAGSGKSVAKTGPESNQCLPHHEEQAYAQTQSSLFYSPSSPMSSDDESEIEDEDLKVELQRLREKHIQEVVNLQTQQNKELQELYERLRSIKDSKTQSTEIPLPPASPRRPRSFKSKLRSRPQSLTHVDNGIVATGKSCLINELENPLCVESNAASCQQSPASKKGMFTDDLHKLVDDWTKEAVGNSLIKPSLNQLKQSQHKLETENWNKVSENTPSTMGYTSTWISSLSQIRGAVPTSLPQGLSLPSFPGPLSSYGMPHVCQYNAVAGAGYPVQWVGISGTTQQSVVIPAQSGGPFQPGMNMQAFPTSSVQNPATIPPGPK

Turning to `COc1cc(-c2cncc(-c3ccc(N4C[C@@H](C)N(C)[C@@H](C)C4)cc3)c2C)cc(F)c1C(N)=O` [Compound 26c, 2-Fluoro-6-methoxy-4-(4-methyl-5-(4-((3R,5S)-3,4,5-trimethylpiperazin-1-yl)phenyl)pyridin-3-yl)benzamide], the remaining activity at 1 µM at MAPKAPK5/PRAK was found to be 94.7%; on EGFR, 95.3%; on PIM2, 99.7%; on MSK2/RPS6KA4 it was 95.4%; at WNK3, 93.8%; at p70S6Kb/RPS6KB2, 102%. For the same molecule, on TSSK2, the remaining activity at 1 µM was 100%. The “% enzyme activity” value came out at 106.19% at TEC and 95.09% on PKCmu/PRKD1. Besides, the % enzyme activity at 1 μM in the test with FMS was 79.5% and 78.8%.

Consider `COc1cc(-c2cncc(-c3ccc(N4CCN(C)CC4)cc3)c2C)cc(F)c1C(N)=O` [Compound 26a, 2-Fluoro-6-methoxy-4-(4-methyl-5-(4-(4-methylpiperazin-1-yl)phenyl)pyridin-3-yl)benzamide], for which the remaining activity at 1 µM on MAPKAPK5/PRAK amounted to 93.2%; on EGFR it was 96%; on PIM2, 99.2%; at MSK2/RPS6KA4, 97.1%; on WNK3, 89.6%; at p70S6Kb/RPS6KB2, 97.3%. Also, the remaining activity at 1 µM on TSSK2 was determined as 100%. In addition, the results for the “% enzyme activity” value on TEC and at PKCmu/PRKD1 were 107.42% and 88.26%, respectively. Also, the % enzyme activity at 1 μM in the test on FMS was 82.2% and 75.7%.
